Laboratory results from US12514836B2, “Composition for prevention and treatment of myopathy” (ONCOCROSS CO., LTD., priority 2020, dated 2026).

Key:
[1] = tested on: MHC and myogenin; assay: Western blot of myoblast differentiation markers in C2C12 cells; format: cell-based, mouse; conditions: 500 μM H2O2, vs DMSO group, FIG. 4
Description: (§1) At this time, 500 μM of H2O2 (hydrogen peroxide) was treated with the differentiation medium to create conditions for inhibiting differentiation. Thereafter, the differentiation medium containing H2O2 and the drugs were exchanged every 2 days. After 4 to 6 days, when the shape of myotubes was confirmed, the myotubes were added with 80 μl of a lysis buffer and then vortexed, and centrifuged for 10 minutes at 14000 rpm, and the obtained proteins were added with a 5× sample buffer and reacted in 95° C. boiling water for 5 minutes. 8 μg of the reacted proteins was loaded on 8% and 12% SDS-PAGE gels, developed, and then transferred to a membrane. The membrane was blocked with PBST containing 5% skim milk at room temperature for 1 hour. The membrane was washed with 1×PBST, added with a primary antibody diluted at 1:1000, and then O/N reacted at 4° C. The next day, the membrane was washed with 1×PBST three times every 10 minutes, added with a secondary antibody diluted at 1:5000 in PBST containing 5% skim milk, and then reacted at room temperature for 1 hour. The membrane was washed with 1×PBST three times every 10 minutes, reacted in an enhanced chemiluminescent solution (ECL), and then exposed to an X-ray film to obtain a Western blot analysis result.

[2] = tested on: SOD1 G93A mice; assay: Duration of life of Lou Gehrig (ALS) animal model mice; format: in vivo, mouse
Excerpt: The presence of symptoms and mortality were confirmed through a daily behavioral test set.

[3] = tested on: C2C12 cells; assay: Myoblast differentiation of C2C12 cells seen by microscope under differentiation-suppressing condition (H2O2); format: cell-based, mouse; conditions: 10 μM, 500 μM H2O2, FIG. 3
[4] = tested on: 4-EBP; assay: Western blot of AKT/mTOR pathway sub-signal 4-EBP in C2C12 cells; format: cell-based, mouse; conditions: 10 μM, 500 μM H2O2, FIG. 4
Description: as §1

[5] = tested on: p70S6K; assay: Western blot of AKT/mTOR pathway sub-signal p70S6K in C2C12 cells; format: cell-based, mouse; conditions: 10 μM, 500 μM H2O2, FIG. 4
Description: as §1

[6] = tested on: MSCs derived from MDX mice; assay: Proliferation of muscle satellite cells (MSCs) derived from MDX mice; format: cell-based, mouse; conditions: 100 μM, 48 hours, vs PBS control, FIG. 6
Excerpt: In MDX mice (Jackso lab, stock no. 001801) (including point mutations in a DMD gene), as the most popular experimental model for testing Duchenne muscular dystrophy, older MDX mice over 40 weeks of age that maintained a homogenous transgenic state through mating and breeding and wild-type mice (normal mice) were anesthetized with isoflurane and then both tibialis anterior (TA) muscles were punctured 30 times each with a 26 G syringe (Korea Vaccine, Cat no. 27-00024-01) to induce physical muscle destruction. On day 3 after inducing muscle destruction, the mice were sacrificed and the TA muscles were separated, washed with 1×PBS (137 mM NaCl, 2.7 mM KCl, 10 mM Na2HPO4, […]) twice, and then chopped for 5 minutes with a razor blade, added in serum-free DMEM (GE healthcare, Cat no. SH30243.01) diluted with collagenase II (ThermoFisher, Cat no. 17101015) to a concentration of 2 mg/ml and digested for 1 hour. Thereafter, a supernatant was removed by centrifugation at 300×g for 5 minutes, washed once with serum-free DMEM, and passed through a 70 μm strainer. […] In the experiment, the average and each standard deviation of measurement results of three or more times were obtained, and significance with the control was determined through T testing (*: […].<0.001).

## CN(C)CCOC(c1ccccc1)c1ccccc1.Cn1c(=O)c2[nH]c(Cl)nc2n(C)c1=O [OC-501, dimenhydrinate]
[1]; 5 μM
  expression levels of MHC and myogenin: increased
[1]; 10 μM
  expression levels of MHC and myogenin: increased

## CC(C)(CO)[C@@H](O)C(=O)NCCC(=O)O [OC-504, calcium pantothenate]
[2]; 30 mpk (combination each 30 mpk), intraperitoneally from 10 weeks old, FIG. 1
  total median duration of life compared to the drug non-administered group: increased statistically significantly
[2]; 30 mpk intraperitoneally from 10 weeks old, non-administered group about 5 weeks, FIG. 2
  prolongation of median duration of life after the appearance of Lou Gehrig's symptoms: about 2 weeks
[2]; extrapolated: 5 weeks in mice taken as about 2 years median duration of life in patients
  prolongation of duration of life converted to Lou Gehrig's patients: about 9.6 months
[3]
  myoblast differentiation: significantly increased
[1]; 10 μM
  expression levels of MHC and myogenin: increased
[4]
  expression of 4-EBP compared to the control group (DMSO): increased
[5]
  expression of P70S6K: increased
[6]
  proliferation of MSCs derived from MDX mice: significantly promoted
